According to US20230270804A1, “ANTI-HYPERCHOLESTEROLEMIA COMPOSITION AND A METHOD OF MANUFACTURING THE SAME” (NBI BIOSCIENCES PRIVATE LIMITED, priority 2020, published 2023):

Key:
[1] = system: Creatine phosphokinase (CPK), Lactate dehydrogenase (LDH), SGOT and SGPT; experiment: Therapeutic study: CPK, LDH, SGOT, SGPT; assay type: in vivo, Wistar strain albino rats
Procedure: (§1) 1.5-2 ml blood sample was taken from retino-orbital chamber in vials for biochemical estimations at every 15 days. Investigations performed included detailed Total Cholesterol—TC (mg/dl), Triglyceride—TG (mg/dl), High Density Lipoprotein—HDL-C (mg/dl), Low Density Lipoprotein—LDL-C (mg/dl), Very Low-Density Lipoprotein—VLDL (mg/dl), WBC (10^3/u1), RBC (10^6/u1), Hb (g/dl), PCV (%), Reticulocyte (%), Platelet count 10^5/mm^3, Clotting time (Sec), Neutrophils, Lymphocyte, Monocyte and Eosinophil. The estimations were done with Ecoline kits from Erba Mannheim, ERBA diagnostics Mannheml, Germany using Semi Autoanalyzer RX50 of MicroLabs Instruments and COUNCELL21 of Tulip Diagnostics Pvt. Ltd. Lipid peroxidation (Plasma & Liver), HMG Co-Reductase, Creatine phosphokinase (CPK), Lactate dehydrogenase (LDH), SGOT and SGPT were estimated at the end of both the studies using the kits.

[2] = Therapeutic study: hematological parameters; assay type: in vivo, Wistar strain albino rats; conditions: for Lymphocyte / Neutrophils: in % (unit assumed); for Eosinophil: unit assumed
Procedure: Wistar strain albino rats of body weight ranging from 190-225 g were selected for the present study. The temperature and humidity were kept at optimum (22+2° C.; 40-70% and animals were exposed to natural chronological day night cycles. The experiments were carried out in conformity with the Institutional Animal Ethics Committee.
The 6 groups were as follows: • 1. Normal Control • 2.
as §1

## CC(C)c1c(C(=O)Nc2ccccc2)c(-c2ccccc2)c(-c2ccc(F)cc2)n1CC[C@@H](O)C[C@@H](O)CC(=O)O [Statin, Atorvastatin]
[1]; HFD Continued
  Creatine phosphokinase: 1.31 ± 0.08
  LDH: 288.32 ± 12.64 U/ml
  SGOT: 63.76 ± 2.92 U/ml
  SGPT: 53.82 ± 1.13 U/ml
[1]; HFD Discontinued
  LDH: 284.07 ± 5.61 U/ml
  SGOT: 62.88 ± 3.43 U/ml
  SGPT: 64.69 ± 0.52 U/ml
[1]; therapeutic study
  CPK value increase: 10%
  SGOT reduction: 16%
  SGPT reduction: 5%
[2]; HFD continued, day 0
  Clotting time: 113.33 ± 1.15 s
  Hb: 12.30 ± 0.20 g/dL
  Monocyte: 1.35%
  PCV: 42.57 ± 1.36%
  Platelet count: 1070 ± 13.9 10³/µL
  RBC: 7.93 ± 0.15 10^6/μl
  Reticulocyte: 1.28 ± 0.03%
  Lymphocyte: 72
  Neutrophils: 25.5
  Eosinophil: 1.25%
[2]; HFD continued, day 15
  Clotting time: 114.33 ± 1.15 s
  Hb: 12.40 ± 0.20 g/dL
  Monocyte: 1.35%
  PCV: 43.43 ± 1.53%
  Platelet count: 1070 ± 11.6 10³/µL
  RBC: 8.07 ± 0.15 10^6/μl
  WBC: 8.58 ± 0.32 103/μl
  Lymphocyte: 72
  Neutrophils: 25.5
  Eosinophil: 1.25%
[2]; HFD continued, day 30
  Clotting time: 114.37 ± 0.71 s
  Hb: 12.83 ± 0.25 g/dL
  PCV: 42.85 ± 0.25%
  Platelet count: 1087 ± 3.61 10³/µL
  RBC: 7.95 ± 0.03 10^6/μl
  Reticulocyte: 1.31 ± 0.03%
  WBC: 8.72 ± 0.07 103/μl
  Lymphocyte: 71.2
  Neutrophils: 26
  Eosinophil: 1.28%
[2]; HFD continued, day 45
  Clotting time: 114.40 ± 0.46 s
  Hb: 12.88 ± 0.28 g/dL
  Monocyte: 1.33%
  PCV: 42.93 ± 0.42%
  Platelet count: 1080 ± 14.5 10³/µL
  RBC: 7.90 ± 0.05 10^6/μl
  Reticulocyte: 1.33 ± 0.02%
  WBC: 8.65 ± 0.08 103/μl
  Lymphocyte: 71.67
  Neutrophils: 25.73
  Eosinophil: 1.27%
[2]; HFD continued, day 60
  Clotting time: 113.33 ± 1.24 s
  Hb: 12.76 ± 0.28 g/dL
  PCV: 42.53 ± 0.57%
  Platelet count: 1070 ± 17 10³/µL
  RBC: 7.83 ± 0.09 10^6/μl
  WBC: 8.57 ± 0.12 103/μl
  Lymphocyte: 71.67
  Neutrophils: 25.70
  Eosinophil: 1.28%
[2]; HFD discontinued, day 0
  Clotting time: 113.33 ± 1.53 s
  Hb: 12.53 ± 0.38 g/dL
  Monocyte: 1.35%
  PCV: 41.43 ± 1.07%
  Platelet count: 1080 ± 11 10³/µL
  RBC: 7.73 ± 0.52 10^6/μl
  Reticulocyte: 1.24 ± 0.04%
  WBC: 8.67 ± 0.59 103/μl
  Lymphocyte: 72
  Neutrophils: 25.87
  Eosinophil: 1.25%
[2]; HFD discontinued, day 15
  Clotting time: 113.50 ± 1.00 s
  Hb: 12.58 ± 0.08 g/dL
  Monocyte: 1.35%
  PCV: 41.63 ± 1.02%
  Platelet count: 1087 ± 8.02 10³/µL
  RBC: 7.97 ± 0.32 10^6/μl
  Reticulocyte: 1.26 ± 0.01%
  WBC: 8.57 ± 0.42 103/μl
  Lymphocyte: 72
  Neutrophils: 25.97
  Eosinophil: 1.25%
[2]; HFD discontinued, day 30
  Clotting time: 113.00 ± 0.70 s
  Hb: 12.62 ± 0.07 g/dL
  PCV: 41.64 ± 0.07%
  Platelet count: 1086 ± 8.19 10³/µL
  RBC: 7.73 ± 0.03 10^6/μl
  Reticulocyte: 1.27 ± 0.02%
  WBC: 8.58 ± 0.04 103/μl
  Lymphocyte: 71.3
  Neutrophils: 26.1
  Eosinophil: 1.26%
[2]; HFD discontinued, day 45
  Clotting time: 113.17 ± 0.35 s
  Hb: 12.87 ± 0.26 g/dL
  Monocyte: 1.27%
  PCV: 41.42 ± 0.50%
  Platelet count: 1070 ± 18.7 10³/µL
  RBC: 7.65 ± 0.08 10^6/μl
  Reticulocyte: 1.28 ± 0.07%
  WBC: 8.51 ± 0.14 103/μl
  Lymphocyte: 71.58
  Neutrophils: 25.9
  Eosinophil: 1.25%
[2]; HFD discontinued, day 60
  Clotting time: 112.04 ± 1.28 s
  Hb: 12.74 ± 0.27 g/dL
  Monocyte: 1.25%
  PCV: 41.01 ± 0.64%
  Platelet count: 1060 ± 20.3 10³/µL
  RBC: 7.57 ± 0.11 10^6/μl
  Reticulocyte: 1.26 ± 0.06%
  WBC: 8.42 ± 0.16 103/μl
  Lymphocyte: 71.70
  Neutrophils: 25.81
  Eosinophil: 1.24%
